The results in this text go back to article PMC12703428, “Development of Granzyme A Turn‐ON Fluorescent Activity‐Based Probes” (Chembiochem, 2025).

Data set [1] deals with NK‐92 cells. The data set is described as follows: Flow cytometry analysis of protein labeling in NK-92 and MDA-MB-231 cells. The following applies: 2 h, 37 °C. The data set is classed as cell-based, human. As to the method:
Figure 4 Characterization of qABPs in native proteomes. A) Labeling of GzmA by 5 and 6 in lysates of various cell lines (1 h, 37 °C). B) Stability of 5 and 6 in buffer and cell media (11 h, 37 °C). The hydrolysis of probes was measured by monitoring the production of Cy5 fluorescence signal over time. […] C) Labeling of GzmA by probes 3 -6 in NK-92 cells (2 h, 37 °C). D) Flow cytometry analysis of protein labeling in NK-92 cells by 3 -5. […] E) Flow cytometry analysis of concentration-dependent GzmA labeling in NK-92 cells and S/N of 5 (5 μM, 2 h, 37 °C). […] F) Flow cytometry analysis of protein labeling by 5 in MDA-MB-231 cells co-cultured with NK-92 cells (see Supporting Information for conditions).
In general terms: Flow cytometry measures light scatter and fluorescence of single cells or particles in a stream.

Data set [2] concerns MDA‐MB‐231 cells co‐cultured with NK‐92 cells. The data set is described as follows: GzmA transfer in NK-92 / MDA-MB-231 coculture. It is filed as cell-based, human. The following applies: 5x10^5 MDA-MB-231 with 2x10^6 NK-92 cells, probe 5 μM, 1-6 h, flow cytometry and gel-based analyses. As for the experimental part:
Figure 4 Characterization of qABPs in native proteomes. A) Labeling of GzmA by 5 and 6 in lysates of various cell lines (1 h, 37 °C). B) Stability of 5 and 6 in buffer and cell media (11 h, 37 °C). The hydrolysis of probes was measured by monitoring the production of Cy5 fluorescence signal over time. […] C) Labeling of GzmA by probes 3 –6 in NK‐92 cells (2 h, 37 °C). D) Flow cytometry analysis of protein labeling in NK‐92 cells by 3 –5. […] E) Flow cytometry analysis of concentration‐dependent GzmA labeling in NK‐92 cells and S/N of 5 (5 μM, 2 h, 37 °C). […]
Supplementary Figure 5. […] Protein samples were analyzed by SDS-PAGE and in-gel fluorescence scanning for Cy5 signal. […]
Conditions for Figure 4C: Various concentrations of probes 3-6 were incubated with 1x10^6 NK-92 cells for 2 h at 37 °C in a humidified incubator. […] Lysates were collected, protein concentration was measured with PIERCE BCA protein assay and samples were analyzed with in-gel fluorescence and GzmA western blotting. […]
All flow cytometry data were collected on BD LSRFortessa and FACSymphony A5 Cell Analyzers and analyzed with FlowJo software. […] Fixed/Permeabilized cells were then resuspended in appropriate amounts of cell staining buffer (BioLegend #420201) and analyzed with flow cytometry and FlowJo software. […]

Data set [3] in a line: Stability of probes in buffer and cell media (hydrolysis by Cy5 signal). The data set is classed as physicochemical. The note with it: cell culture media, 11 h incubation, 37 °C, read-out production of Cy5 fluorescence signal, mean ± SD n = 3. As for the experimental part:
Figure 4 Characterization of qABPs in native proteomes. A) Labeling of GzmA by 5 and 6 in lysates of various cell lines (1 h, 37 °C). B) Stability of 5 and 6 in buffer and cell media (11 h, 37 °C). The hydrolysis of probes was measured by monitoring the production of Cy5 fluorescence signal over time. […] C) Labeling of GzmA by probes 3 –6 in NK‐92 cells (2 h, 37 °C). D) Flow cytometry analysis of protein labeling in NK‐92 cells by 3 –5. […] E) Flow cytometry analysis of concentration‐dependent GzmA labeling in NK‐92 cells and S/N of 5 (5 μM, 2 h, 37 °C). […] F) Flow cytometry analysis of protein labeling by 5 in MDA‐MB‐231 cells co‐cultured with NK‐92 cells (see Supporting Information for conditions). […] TEXT PRINTED IN THE PICTURE: (E) qABP 5: S/N = 4

“And” between values parts separate entries of the source, which are not always exact repeats. Equal values may be shown once. Square brackets hold non-standard residues; d marks the D form. Ends that are not written are not given here. Oic = O=C(O)[C@@H]1C[C@@H]2CCCC[C@@H]2N1; Tic = O=C(O)[C@@H]1Cc2ccccc2CN1

With IGNR [compound 5], in data set [1] (1x10^6 NK-92 cells, fixed/permeabilized, mean ± SD n = 3), the “Cell permeability by flow cytometry (Cy5 signal in NK-92 cells)” value is on record as “clear Cy5 signal”. Further, the “Concentration dependence of protein labeling in NK-92 cells (flow cytometry)” value in data set [1] (NK-92 cells, n = 3) is reported as “concentration‐dependent protein labeling”. Also, the “S/N ratio (mean fluorescence intensity, intact NK-92 versus MDA-MB-231 cells)” value in data set [1] (probe 5 μM, flow cytometry, n = 3) was “≈ 4 and 4”. For the same substance, the “Detection of GzmA transfer from NK-92 cells to MDA-MB-231 cells” value in data set [2] is listed as “able to detect GzmA transfer”.
Take [Tic]G[Oic]R [compound 6]: in data set [3], the Hydrolysis of probe entry is “≈ 20%”.
